Where two headings read alike, the source gives them in different places.
Tests used:
human mu opioid receptor [1] = molecular target: T1, human mu opioid receptor (Homo sapiens, UniProt P35372); experiment: cell-based; conditions: for Emax: read-out: % max effect, mu opioid receptor
T1 construct: expressed in transfected cells; host or cells: CHO cells
Protocol: Studies were conducted in CHO cells heterologously expressing the cloned human mu, kappa or delta opioid receptors. cAMP was measured using a cAMP HiRange homogenous time-resolved fluorescence assay (HTRF Assay), that is based on a competitive immunoassay principle (Cisbio, Cat.#62AM6PEC).
Briefly, suspensions of cells expressing either the mu, kappa or delta opioid receptors were prepared in buffer containing 0.5 mM isobutyl-methyl xanthine (IBMX). […] EC50 values were calculated for each compound from a sigmoidal dose-response plot of concentrations versus maximum response. To determine if the compounds behaved as full or partial agonists in the system, the maximal response at the highest tested concentrations of compounds were compared to that produced by a known full agonist.

human mu opioid receptor [2] = molecular target: T1, human mu opioid receptor; experiment: biochemical; type: binding
Protocol: Radioligand displacement was measured using scintillation proximity assays (SPA).
Briefly, serial dilutions of the test compounds were placed in a 96-well plate to which were added SPA beads, membrane and radioligand. The assay conditions for each opioid receptor subtype are described in Table 10 below. The plates were incubated for 8 hours-overnight at room temperature, spun at 1000 rpm to pellet the SPA beads, and radioactivity was measured using the TopCount® microplate Scintillation counter. Specific binding at each concentration of test compound was calculated by subtracting the non-specific binding measured in the presence of excess cold ligand. IC50 values were obtained by non-linear regression of specific binding versus concentration curves and Ki values were calculated using Kd values that were experimentally pre-determined for each lot of membrane preparations.

[3] = Pharmacokinetics following intravenous (IV) dosing; type: in vivo, Sprague-Dawley rats; conditions: for AUC / AUC(0-inf) / MRT last / clearance / Cmax / half-life / Vd: male, Sprague-Dawley, rat, plasma; for Cmax: read-out: Cmax; for Vd: read-out: Vss
Text: (§1) There were 3 rats/group. All animals were food fasted overnight. […] The predose sample was collected from the JVC.
(§2) Following the last collection point, the animals were euthanized.

[4] = Pharmacokinetics following oral (PO) dosing; type: in vivo, Sprague-Dawley rats; conditions: male, Sprague-Dawley, rat, plasma, po, 5 mg/kg; for Cmax: read-out: Cmax; for half-life: read-out: T1/2(2); for Tmax: read-out: Tmax (converted)
Text: as §1, §2

[5] = maximal response at the highest tested concentration
[6] = read-out: EC50, mu opioid receptor
[7] = hydroxycodone series, 1 mg/kg IV, Mean ± SD
[8] = hydroxycodone series, 1 mg/kg IV, Mean ± SD, read-out: T1/2(z)
[9] = CHO-K1 membranes, [3H]DAMGO 6 nM, read-out: Ki, Mu opioid receptor

T1 sequence (P35372 whole entry): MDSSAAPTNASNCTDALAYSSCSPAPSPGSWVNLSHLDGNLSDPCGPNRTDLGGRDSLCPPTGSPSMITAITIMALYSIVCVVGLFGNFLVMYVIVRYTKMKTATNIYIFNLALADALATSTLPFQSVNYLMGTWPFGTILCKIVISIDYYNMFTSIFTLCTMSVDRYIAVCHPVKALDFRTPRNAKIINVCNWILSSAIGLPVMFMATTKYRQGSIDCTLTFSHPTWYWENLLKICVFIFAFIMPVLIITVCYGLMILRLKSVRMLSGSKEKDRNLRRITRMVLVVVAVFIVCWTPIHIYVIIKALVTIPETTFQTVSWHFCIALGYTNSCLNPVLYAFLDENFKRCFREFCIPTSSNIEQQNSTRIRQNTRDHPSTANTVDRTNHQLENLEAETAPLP

Compound: COCCOCCOCCOCCOC1C=CC2C3Cc4ccc(O)c5c4C2(CCN3C)C1O5 (stereo not drawn) [α-6-mPEG4-O-morphine]
- EC50 (human mu opioid receptor [1]): 128 nM
- Emax (human mu opioid receptor [1]): 100%
- Ki (human mu opioid receptor [2]): 23.1 nM

Compound: COCCOCCOCCOCCOCCOC1CCC2(O)C3Cc4ccc(OC)c5c4C2(CCN3C)C1O5 (stereo not drawn) [α-6-mPEG5-O-hydroxycodone, α-6-mPEG5-O-oxycodone]
- Emax (human mu opioid receptor [1]; [5]): 108%
- EC50 (human mu opioid receptor [1]; [6]): 5040 nM
- AUC [3, 7]: 282 ng·h/mL
- AUC(0-inf) [3, 7]: 295 ng·h/mL
- MRT last [3, 7]: 0.77 h
- clearance [3, 7]: 57 ± 6.07 mL/min/kg
- Cmax [3, 7]: 622 ± 39.7 ng/mL
- half-life [3, 8]: 1.03 ± 0.0642 h
- Vd [3, 7]: 3.3 ± 0.184 L/kg
- Ki (human mu opioid receptor [2]; [9]): 1860 nM

Compound: COCCOCCOCCOCCOCCOC1C=CC2C3Cc4ccc(O)c5c4C2(CCN3C)C1O5 (stereo not drawn) [α-6-mPEG5-O-morphine]
- EC50 (human mu opioid receptor [1]): 157 nM
- Emax (human mu opioid receptor [1]): 95%
- Ki (human mu opioid receptor [2]): 39.4 nM

Compound: COCCOCCOCCOCCOCCOCCOC1C=CC2C3Cc4ccc(O)c5c4C2(CCN3C)C1O5 (stereo not drawn) [α-6-mPEG6-O-morphine]
- EC50 (human mu opioid receptor [1]): 415 nM
- Emax (human mu opioid receptor [1]): 98%
- Ki (human mu opioid receptor [2]): 73 nM

Compound: COCCOCCOCCOCCOCCOCCOCCOC1C=CC2C3Cc4ccc(OC)c5c4C2(CCN3C)C1O5 (stereo not drawn) [α-6-mPEG7-O-codeine]
- Emax (human mu opioid receptor [1]; [5]): 75%
- EC50 (human mu opioid receptor [1]; [6]): 44700 nM
- AUC [4]: 285 ng·h/mL
- AUC(0-inf) [4]: 267 ng·h/mL
- MRT last [4]: 2.85 h
- bioavailability [4]: 26.9%
- Cmax [4]: 76.6 ± 12.8 ng/mL
- half-life [4]: 1.63 h
- Tmax [4]: 2 h
- AUC ([3]; iv, 1 mg/kg): 212 ng·h/mL
- AUC(0-inf) ([3]; iv, 1 mg/kg): 228 ng·h/mL
- MRT last ([3]; iv, 1 mg/kg): 0.845 h
- clearance ([3]; iv, 1 mg/kg): 73.1 ± 1.73 mL/min/kg
- Cmax ([3]; iv, 1 mg/kg): 443 ± 43.3 ng/mL
- half-life ([3]; iv, 1 mg/kg, read-out: T1/2(2)): 1.24 ± 0.096 h
- Vd ([3]; iv, 1 mg/kg): 5.2 ± 0.596 L/kg
- Ki (human mu opioid receptor [2]; [9]): 9960 nM

Compound: COCCOCCOCCOCCOCCOCCOCCOC1C=CC2C3Cc4ccc(O)c5c4C2(CCN3C)C1O5 (stereo not drawn) [α-6-mPEG7-O-morphine]
- EC50 (human mu opioid receptor [1]): 508 nM
- Emax (human mu opioid receptor [1]): 90%
- Ki (human mu opioid receptor [2]): 56.9 nM

Compound: COCCOCCOCCOCCOCCOCCOCCOCCOCCOC1C=CC2C3Cc4ccc(O)c5c4C2(CCN3C)C1O5 (stereo not drawn) [α-6-mPEG9-O-Morphine, α-6-mPEG-O9-morphine]
- Emax (human mu opioid receptor [1]; [5]): 87%
- EC50 (human mu opioid receptor [1]; [6]): 1060 nM
- Ki (human mu opioid receptor [2]; [9]): 111 nM

Compound: COCCOCCOCCOCCOCCOCCOCCOCCOCCOC1C=CC2C3Cc4ccc(OC)c5c4C2(CCN3C)C1O5 (stereo not drawn) [α-6-mPEG9-O-codeine]
- Emax (human mu opioid receptor [1]; [5]): 80%
- EC50 (human mu opioid receptor [1]; [6]): 48200 nM
- AUC [4]: 122 ng·h/mL
- AUC(0-inf) [4]: 114 ng·h/mL
- MRT last [4]: 2.98 h
- bioavailability [4]: 8.22%
- Cmax [4]: 31.5 ± 8.43 ng/mL
- half-life [4]: 2.38 h
- Tmax [4]: 0.25 h
- AUC ([3]; iv, 1 mg/kg): 297 ng·h/mL
- AUC(0-inf) ([3]; iv, 1 mg/kg): 347 ng·h/mL
- MRT last ([3]; iv, 1 mg/kg): 0.953 h
- clearance ([3]; iv, 1 mg/kg): 48.6 ± 6.74 mL/min/kg
- Cmax ([3]; iv, 1 mg/kg): 730 ± 68 ng/mL
- half-life ([3]; iv, 1 mg/kg, read-out: T1/2(2)): 1.82 ± 0.03 h
- Vd ([3]; iv, 1 mg/kg): 5.18 ± 0.538 L/kg
- Ki (human mu opioid receptor [2]; [9]): 9980 nM

Compound: COCCOCCOCCOCCOCCOCCOCCOCCOCCOC1CCC2(O)C3Cc4ccc(OC)c5c4C2(CCN3C)C1O5 (stereo not drawn) [α-6-mPEG9-O-hydroxycodone, α-6-mPEG9-O-oxycodone]
- Emax (human mu opioid receptor [1]; [5]): 95%
- mean t1/2 value, times that of the parent compound ([3]; 1 mg/kg IV): 3 times
- AUC [3, 7]: 277 ng·h/mL
- AUC(0-inf) [3, 7]: 350 ng·h/mL
- MRT last [3, 7]: 0.878 h
- clearance [3, 7]: 48.9 ± 9.41 mL/min/kg
- Cmax [3, 7]: 955 ± 149 ng/mL
- half-life [3, 8]: 2.38 ± 0.238 h
- Vd [3, 7]: 6.35 ± 0.349 L/kg

— patent publication US20130023553A1, “PEGYLATED OPIOIDS WITH LOW POTENTIAL FOR ABUSE AND SIDE EFFECTS” (Nektar Therapeutics, priority 2010, published 2013)
